Key:
[1] = tested on: SC5314 strain of Candida albicans; experiment: Effect of cell wall disrupting agents on peptide activity, CFU; format: cell-based; conditions: Proteinase K 1 mg/ml, 30 min
Experimental: The SC5314 strain of Candida albicans (wild type or WT) were grown overnight in YPD broth at 30° C. The overnight culture was then subcultured into fresh YPD medium and grown for 5 h. Cells were treated with Proteinase K (1 mg/ml) for 30 min or Zymolyase (5 mg/ml) for 1 h at 30° C., followed by reacting with different concentrations of the peptides for 1 h, respectively. After that, samples were serially diluted in phosphate-buffered saline (PBS) and 15 μl of each diluent was spotted onto YPD agar plates. Colony-forming units were counted after incubation at 30° C. for 24 h. The data were represented as the mean values±SD of three independent experiments.

och1Δ mutant strain = experiment: Susceptibility of och1Δ mutant, CFU; format: cell-based, Candida albicans; conditions: och1Δ versus SN250, 1 h
Experimental: The SN250 and och1Δ mutant strains were grown overnight in YPD broth at 30° C. The overnight culture was then subcultured into fresh YPD medium and grown for 5 h. Cells were treated with different concentration of peptides for 1 h. After treatment, samples were serially diluted in PBS and 15 μl of each diluent was spotted onto YPD agar plates. Colony-forming units were counted after 24 h incubation at 30° C. The data were represented as the mean values±SD of three independent experiments.

C. dubliniensis = format: cell-based
Experimental: (§1) The antimicrobial activities against clinical isolates and drug-resistant strains of P-113 and its derived peptides were examined. The present invention evaluated the effect of P-113 on 15 clinical isolates of fungi belonging to the genus Candida (see Table 1). Clinical isolates were cultivated overnight at 30° C. under shaking in a YPD cultural broth (1% yeast extract, 2% peptone and 2% glucose), cells were centrifuged and washed with YPD, then cultivated again in a YPD culture broth allowing to grow for 5 hours (initial optical density at 600 nm [OD600]˜0.5). Cells were washed with PBS and then collected by centrifugation, redissolved in a culture broth (modified RPMI 1640 medium, LYM), the cell concentration was adjusted to ˜0.1 [OD600]/ml and then treated with P-113. After the mixed solution was cultivated under shaking at 37° C. and 5% CO2 for 24 hours, absorbance measurement (OD value) was performed to determine the minimum inhibitory concentration (MIC).

C. parapsilosis = format: cell-based
Experimental: as §1

[2] = Circular dichroism secondary structure in 85% TFE, BeStSel analysis; format: physicochemical; conditions: CD analyzed by BeStSel
Experimental: The present invention utilized a Circular Dichroism Spectrometer (AVIV Company) to observe the secondary structure of the antimicrobial peptides. Circular dichoism spectra of P-113 and its derivatives were recorded over the wavelength range of 195-260 nm with readings every 1 nm by using a quartz cuvette having 1 mm optical path length. Ellipticities were represented as mean residue molar ellipticity (MRE). P-113, P-113Du and P-113Tri were dissolved in 85% trifluoroethanol (TFE) solution.

[3] = tested on: Wild type (WT) Candida albicans; experiment: Salt and pH tolerance of candidacidal activity; format: cell-based
Experimental: Wild type (WT) Candida albicans was cultivated in a YPD medium at 30° C. overnight and then transferred to 5 ml of fresh YPD culture broth, cultivated subsequently for another 5 hours. After the fungi were collected by centrifugation, washed with 12.5 mM sodium acetate twice, redissolved with 12.5 mM NaOAc to yield a fungal concentration of 1.5×10^6 cells/ml. Fifty microliters of liquid fungal suspension was taken out to mix with 50 μl of sequentially diluted antimicrobial peptides and placed in different wells of a 96-well plate allowing to react for 1 hour at 37° C. (as shown in FIG. 4(A). Then, 50 μl of liquid fungal mixture was taken out and 450 μl PBS was added to terminate the reaction. Finally, 25 μl was taken out and inoculated on a solid YPD medium.

[4] = tested on: Wild type (WT) Candida albicans; experiment: Candidacidal activity against cell suspension, colony count; format: cell-based; conditions: 37° C., 1 hour
Experimental: Wild type (WT) Candida albicans was cultivated in a YPD medium at 30° C. overnight and then transferred to 5 ml of fresh YPD culture broth, subsequently cultivated for another 5 hours. After being collected by centrifugation, the fungi were washed with sodium acetate (12.5 mM) twice, redissolved with 12.5 mM sodium acetate to yield a fungal concentration of 1.5×10^5 cells/ml. 50 μl of liquid fungal suspension was taken out to be mixed with 50 μl of sequence-diluted antimicrobial peptide and placed in different wells of a 96-well plate, allowing to react (37° C.) for 1 hour (as shown in FIG. 4(A)). Then, 20 μl of fungal liquid mixture was added into 780 μl of PBS to terminate the reaction. Finally, 50 μl was taken out and inoculated on a solid YPD medium, cultivated at 30° C. for 24 hours, then the number of colonies were counted.

[5] = tested on: Candida albicans strain SC5314 biofilms; experiment: Biofilm cell viability, XTT reduction assay; format: cell-based; conditions: biofilm cells, 37° C., 1 hr
Experimental: Candida albicans strain SC5314 was cultivated in a YPD medium overnight and then transferred to a fresh YPD culture broth, diluted until the concentration was 3×10^5 cells/ml. 100 μl of liquid fungal suspension was placed in a 96-well plate for cultivation at 37° C. for 24 hours, formed biofilms were washed with sodium acetate (12.5 mM). Then, sequence-diluted antimicrobial peptides P-113, P-113Du and P-113Tri (0-200 μM) were added, reacted at 37° C. for 1 hour, washed with PBS twice. The cellular activity of the biofilms was determined by using XTT (2,3-bis(2-methoxy-4-nitro-5-sulfophenyl)-2H-tetrazolium-5-carboxanilide) reduction assays to analyze the cell survival rate. To perform this reaction, XTT (0.5 mg/ml) and Menadione (0.5 μM) were dissolved in PBS and then added into a 96-well plate formed by biofilms, reacted at 30° C. for 30 minutes, the optical density was measured at wavelength 490 nm (OD490). The cellular activity of the biofilms was represented as a percentage.

Enterobacter aerogenes = experiment: Antimicrobial effect against bacteria (MIC); format: cell-based; conditions: strain ATCC 13048
Experimental: (§2) Wild type (WT) Pseudomonas aeruginosa, Klebsiella pneumoniae, Enterobacter aerogenes, Staphylococcus aureus were cultivated overnight in LB medium at 37° C., then transferred to 5 ml of fresh LB culture broth, cultivated again for another 3 hours. Bacteria were collected by centrifugation, washed with sodium acetate (12.5 mM) twice, redissolved with 12.5 mM sodium acetate until the concentration was 1.5×10^5 cells/ml. Mixed with sequential-diluted anti-bacterial peptides, seeded in different wells of a 96-well plate allowing to react for 1 hour. Then, 20 μl of liquid bacterial mixture was taken out to mix with 780 μl of PBS (Phosphate-buffered saline) to terminate the reaction. 50 μl was then taken out and inoculated on a solid medium, after being cultivated at 30° C. for 24 hours, formed colonies were observed.

Klebsiella pneumoniae = experiment: Antimicrobial effect against bacteria (MIC); format: cell-based; conditions: strain CG43
Experimental: as §2

Pseudomonas aeruginosa = experiment: Antimicrobial effect against bacteria (MIC); format: cell-based; conditions: strain PAO1, ATCC 15692
Experimental: as §2

Staphylococcus aureus = experiment: Antimicrobial effect against bacteria (MIC); format: cell-based; conditions: strain ATCC 33591
Experimental: as §2

[6] = tested on: SC5314 strain of Candida albicans; experiment: Intracellular ROS assay (DHE, MitoSOX Red, flow cytometry); format: cell-based; conditions: 0.25 μM, 1 h, 37° C.
Experimental: The SC5314 strain of Candida albicans (wild type or WT) were grown overnight in YPD broth at 30° C. The overnight culture was then subcultured into fresh YPD medium and grown for 5 h. Cells were harvested by centrifugation, washed twice with 12.5 mM sodium acetate (NaOAc) and resuspended in 12.5 mM NaOAc to a concentration of 1*10^7 cells/ml. The cells were treated with various AMPs (0.25 μM) for 1 h at 37° C. After treatment, cells were washed twice with 12.5 mM NaOAc. Dihydroethidium (DHE) is a superoxide indicator, and MitoSOX Red (MitoSOX) was introduced for selective detection of superoxide in the mitochondria of live cells. The intracellular ROS was measured using DHE (20 μM) staining for 30 min and MitoSOX Red (5 μM) for 60 min in PBS. Fluorescent detection was performed by flow cytometry.

Molecule | candidacidal activity after proteinase K treatment of cells [1] | susceptibility of och1Δ mutant to peptide (och1Δ mutant strain) | Minimum Inhibitory Concentration (C. dubliniensis) | Minimum Inhibitory Concentration (C. parapsilosis) | content of the α-helical secondary structure [2] | candidacidal activity ([3]; 93.75 mM sodium acetate) | antifungal activity in the high salt environment ([3]; 62.5 and 93.75 mM) | candidacidal activity ([3]; pH 4.5, 6, and 8) | activity for killing fungus compared with P-113 [4] | concentration causing 50% reduction in the metabolic activity (50% RMA) [5] | Minimum Inhibitory Concentration (MIC) (Enterobacter aerogenes) | Minimum Inhibitory Concentration (MIC) (Klebsiella pneumoniae) | Minimum Inhibitory Concentration (MIC) (Pseudomonas aeruginosa) | Minimum Inhibitory Concentration (MIC) (Staphylococcus aureus) | ROS-inducing ability, rank among peptides [6] | intracellular ROS formation [6]
LL-37: the control peptide (LLGDFFRKSKEKIGKEFKRIVQRIKDFLRNLVPRTES; Antibacterial peptide LL-37; UniProt P49913 134-170, looked up) [reference compound] | can still kill C. albicans cells | resistant |  |  |  |  |  |  |  |  |  |  |  |  |  | 
C[C@H](N)C(=O)N[C@@H](CCCCN)C(=O)N[C@@H](CCCNC(=N)N)C(=O)N[C@@H](Cc1c[nH]cn1)C(=O)N[C@@H](Cc1c[nH]cn1)C(=O)NCC(=O)N[C@@H](Cc1ccc(O)cc1)C(=O)N[C@@H](CCCCN)C(=O)N[C@@H](CCCNC(=N)N)C(=O)N[C@@H](CCCCN)C(=O)N[C@@H](Cc1ccccc1)C(=O)N[C@@H](Cc1c[nH]cn1)C(=O)N[C@@H](C)C(=O)N[C@@H](CCCCN)C(=O)N[C@@H](CCCNC(=N)N)C(=O)N[C@@H](Cc1c[nH]cn1)C(=O)N[C@@H](Cc1c[nH]cn1)C(=O)NCC(=O)N[C@@H](Cc1ccc(O)cc1)C(=O)N[C@@H](CCCCN)C(=O)N[C@@H](CCCNC(=N)N)C(=O)N[C@@H](CCCCN)C(=O)N[C@@H](Cc1ccccc1)C(=O)N[C@@H](Cc1c[nH]cn1)C(=O)N[C@@H](C)C(=O)N[C@@H](CCCCN)C(=O)N[C@@H](CCCNC(=N)N)C(=O)N[C@@H](Cc1c[nH]cn1)C(=O)N[C@@H](Cc1c[nH]cn1)C(=O)NCC(=O)N[C@@H](Cc1ccc(O)cc1)C(=O)N[C@@H](CCCCN)C(=O)N[C@@H](CCCNC(=N)N)C(=O)N[C@@H](CCCCN)C(=O)N[C@@H](Cc1ccccc1)C(=O)N[C@@H](Cc1c[nH]cn1)C(N)=O [P-113Tri] | failed to kill C. albicans | still sensitive | 3.10 µg/mL | 0.78 µg/mL | 21.4% | potent candidacidal activity | maintained strong antifungal activity | consistent candidacidal activity | stronger activity for killing fungus than P-113 | 43.245 µg/mL | 12.5 µg/mL | 6.25 µg/mL | 3.125 µg/mL | 25 µg/mL | strongest ROS-inducing ability | induced intracellular ROS formation
C[C@H](N)C(=O)N[C@@H](CCCCN)C(=O)N[C@@H](CCCNC(=N)N)C(=O)N[C@@H](Cc1c[nH]cn1)C(=O)N[C@@H](Cc1c[nH]cn1)C(=O)NCC(=O)N[C@@H](Cc1ccc(O)cc1)C(=O)N[C@@H](CCCCN)C(=O)N[C@@H](CCCNC(=N)N)C(=O)N[C@@H](CCCCN)C(=O)N[C@@H](Cc1ccccc1)C(=O)N[C@@H](Cc1c[nH]cn1)C(=O)N[C@@H](C)C(=O)N[C@@H](CCCCN)C(=O)N[C@@H](CCCNC(=N)N)C(=O)N[C@@H](Cc1c[nH]cn1)C(=O)N[C@@H](Cc1c[nH]cn1)C(=O)NCC(=O)N[C@@H](Cc1ccc(O)cc1)C(=O)N[C@@H](CCCCN)C(=O)N[C@@H](CCCNC(=N)N)C(=O)N[C@@H](CCCCN)C(=O)N[C@@H](Cc1ccccc1)C(=O)N[C@@H](Cc1c[nH]cn1)C(N)=O [P-113Du] | failed to kill C. albicans | resistant | 3.10 µg/mL | 0.78 µg/mL | 10.6% | potent candidacidal activity |  | consistent candidacidal activity | stronger activity for killing fungus than P-113 | 51.54 µg/mL | 25 µg/mL | 12.5 µg/mL | 3.125 µg/mL | 25 µg/mL |  | induced intracellular ROS formation
